{"source": "patent US6646006B2", "about": "“Enhancement of vascular function by modulation of endogenous nitric oxide production or activity” (The Board of Trustees of the Leland Stanford Junior …, priority 1993, dated 2003)", "key": {"MCP-1 promoter": {"system": "MCP-1 promoter", "experiment": "MCP-1 promoter activity in transfected SMC and COS cells", "format": "cell-based", "conditions": "400 bp promoter fragment", "experimental": "(§1) Methods and Results. Smooth muscle cells (SMC) were isolated from normal rabbit aortae by explant method. Cells were then exposed to oxidized LDL (30 μg/ml) (which is known to induce vascular cells to synthesize MCP-1). […] All of these effects of oxidized LDL cholesterol were reduced by previous exposure of the SMC to the NO-donor DETA-NONOate (100 μM) (p<0.05). To determine if NO exerted its effect at a transcriptional level, SMC and COS cells were transfected with a 400 bp fragment of the MCP-1 promoter. Enhanced promoter activity by oxLDL was inhibited by DETA-NO."}, "[1]": {"system": "Smooth muscle cells (SMC)", "experiment": "Oxidized LDL-exposed aortic smooth muscle cells: MCP-1, superoxide anion, NFκB", "format": "cell-based, rabbit", "conditions": "DETA-NONOate 100 μM pre-exposure, oxLDL 30 μg/ml", "experimental": "as §1"}, "[2]": {"system": "hypercholesterolemic rabbits", "experiment": "Oral L-lysine in cholesterol-fed rabbits: vasorelaxation and histomorphometry", "format": "in vivo, rabbit", "conditions": "ten weeks", "from_the_text": "FIG. 9 is a set of dose-response curves showing the effect of chronic lysine administration on endothelium dependent vasodilation in hypercholesterolemic rabbits. […] Chronic administration of lysine was just as effective as arginine in restoring vascular function and structure. (See Ex. 14)\nL-lysine is a basic amino acid like L-arginine, but is not known to be metabolized by NO synthase to NO. Therefore, the following results were unexpected. New Zealand white rabbits were fed a normal or high cholesterol chow (n=18). Half of the animals on the cholesterol diet also received oral L-lysine. After ten weeks, the thoracic aortae were harvested and bioassayed for vascular NO synthesis, and histomorphometry to assess lesion formation was performed as described above."}, "platelets": {"system": "platelets", "experiment": "ADP-initiated platelet aggregation (nephelometry), platelets from treated rabbits", "format": "in vivo, rabbit", "conditions": "N-methylarginine 10^−4 M in vitro", "experimental": "The effect of L-arginine supplementation on platelet reactivity in rabbits that had normal chow (Control; n=6), a 1% cholesterol diet (Chol; n=5), or a 1% cholesterol diet supplemented with oral arginine (Arg; n=6), as detailed above, was examined. Arterial blood obtained after central ear artery cannulation was anticoagulated with 13 mM sodium citrate. Platelet-rich suspension was prepared by washing platelets in calcium-free Krebs-Henseleit solution and resuspending them in Tyrode's solution with albumin. Aggregation was initiated by addition of adenosine diphosphate and monitored by standard nephelometric techniques. In platelets derived from Chol animals, aggregation was not different in rate or maximum extent in comparison to platelets from Control animals (A, in FIG. 2). By contrast, aggregation of platelets from Arg animals was reduced by 50% (B, in FIG. 2).\nTherefore, the anti-platelet effect of chronic oral arginine administration can be credited to an increased synthesis of endogenous NO. Furthermore, NO synthesis may be induced in both the platelets and the endothelium."}, "[3]": {"system": "human aortic endothelial cells (HAEC)", "experiment": "Flow-exposed human aortic endothelial cells: THP-1 monocyte binding after oxLDL or LPS/TNF", "format": "cell-based", "conditions": "oxLDL 30 μg/ml", "experimental": "FIG. 6. Stimulation of cultured endothelial cells with fluid flow causes them to secrete nitric oxide. Flow-induced secretion of nitric oxide decreases endothelial adhesiveness induced by oxidized LDL cholesterol (oxLDL; 30 μg/ml). Exposure of human aortic endothelial cells to oxLDL increased the ex vivo binding of monocytes when compared to Control. In comparison to cells not exposed to flow (static), previous exposure to flow inhibited the monocyte adhesion induced by oxLDL. These effects of flow were blocked by NO synthase inhibitors and mimicked by NO donors (PAPA-NO) or cyclic GMP (cGMP). Bars represent mean±SEM. *p<0.05; **p<0.01. (See Ex. 8)\nMethods and Results: Confluent monolayers of human aortic endothelial cells (HAEC) were exposed to static or fluid flow conditions for 4 hours (fluid flow stimulates the production of endogenous nitric oxide). Medium was then replaced and cells were then incubated with native LDL (50 μg/ml), oxidized LDL (30 μg/ml), or LPS (10 ng/ml)+TNF-α (10 U/ml) for an additional 4 hours. Functional binding assays utilizing THP-1 monocytes were then performed. Superoxide production by HAECs was monitored by lucigenin chemiluminescence and expression of the adhesion molecules VCAM-1 and ICAM-1 was quantitated by flow cytometry. […] Previous exposure to fluid flow inhibited endothelial adhesiveness for monocytes (FIG. 6) and the other sequelae of exposure to cytokines or oxidized lipoprotein."}, "[4]": {"system": "hypercholesterolemic rabbits", "conditions": "vs 1% cholesterol diet alone, ten weeks", "from_the_text": "At ten weeks animals were sacrificed for studies of platelet and vascular reactivity, and histomorphometry."}}, "data": [{"smiles": "NCCN(CCN)/[N+]([O-])=N/O", "note": "[DETA-NONOate]", "values": [{"measurement": "MCP-1 promoter activity enhanced by oxLDL", "setting": "MCP-1 promoter", "value": "inhibited"}, {"measurement": "activity of NFκB induced by oxidized LDL", "setting": "[1]", "value": "reduced"}, {"measurement": "expression of MCP-1 induced by oxidized LDL", "setting": "[1]", "value": "reduced"}, {"measurement": "generation of superoxide anion induced by oxidized LDL", "setting": "[1]", "value": "reduced"}]}, {"smiles": "NCCCC[C@H](N)C(=O)O", "note": "[L-lysine]", "values": [{"measurement": "vascular NO activity (endothelium-dependent vasorelaxation)", "setting": "[2]", "value": "just as effective as L-arginine"}, {"measurement": "vascular lesion formation / plaque area", "setting": "[2]", "value": "marked reduction"}, {"measurement": "vascular NO activity (endothelium-dependent vasorelaxation)", "setting": "[2]; listed as lysine", "value": "improved"}]}, {"smiles": "CN[C@@H](CCCNC(=N)N)C(=O)O", "note": "[N-methylarginine, reference compound]", "values": [{"measurement": "reversal of the arginine-induced reduction of platelet reactivity", "setting": "platelets", "value": "could be reversed"}, {"measurement": "reversal of the arginine-induced reduction of platelet reactivity", "setting": "platelets; listed as LNMMA", "value": "reverses"}]}, {"smiles": "CCCN(CCCN)/[N+]([O-])=N/O", "note": "[PAPA-NONOate]", "values": [{"measurement": "mimicry of the effects of flow on monocyte adhesion", "setting": "[3]", "value": "mimicked the effects of flow"}, {"measurement": "mimicry of the effects of flow on monocyte adhesion", "setting": "[3]; listed as PAPA-NO", "value": "mimicked"}]}, {"smiles": "Nc1nc2c(ncn2[C@@H]2O[C@@H]3COP(=O)(O)O[C@H]3[C@H]2O)c(=O)[nH]1", "note": "[cGMP, cyclic guanosine monophosphate]", "values": [{"measurement": "mimicry of the effects of flow on monocyte adhesion", "setting": "[3]", "value": "mimicked"}]}, {"smiles": "CSCC[C@H](N)C(=O)O", "note": "[methionine]", "values": [{"measurement": "endothelium-dependent relaxation", "setting": "[4]", "value": "not different"}, {"measurement": "intimal thickness", "setting": "[4]", "value": "not different"}, {"measurement": "platelet aggregation", "setting": "[4]", "value": "not different"}]}]}
